Measured values from patent US6475801B1, “Anticoagulant and hemanalysis method” (Sysmex Corporation, priority 1998, dated 2002).

Experiments:
[1] = tested on: platelets; experiment: Examination on EDTA-dependant pseudothrombocytopenia (platelet counting); assay type: cell-based, human; conditions: FIG. 1
Procedure: Blood samples to which CTAD of the present invention or EDTA-2K was added were subjected to the platelet counting in order to compare them with regard to the EDTA-dependant Pseudothrombocytopenia.

[2] = tested on: platelets; experiment: Examination on cold agglutination (platelet counting after cold storage); assay type: cell-based, human
Procedure: Blood samples to which CTAD of the present invention or EDTA-2K was added were subjected to the platelet counting in order to compare them with regard to cold agglutination (the pseudothrombocytopenia in cold storage). […]

[3] = tested on: platelets; experiment: Change with time in the mean platelet volume (MPV); assay type: cell-based, human; conditions: FIG. 2
Procedure: Blood samples to which CTAD of the present invention or EDTA-2K was added were compared with regard to change with time in the size of platelets.

[4] = tested on: blood coagulation; experiment: Blood coagulation tests (CA-1000), Example 1 A; design: species or system human; conditions: mean of four normal samples
Text: Blood was collected into test tubes containing the anticoagulant (CTAD) prepared as above and subjected to blood cell count tests (leukocyte count (WBC), ratios of leukocytic components (neutrophil ratio (NEUT%), lymphocyte ratio (LYMPH%), monocyte ratio (MONO%), eosinophil ratio (EOSI%) and basophil ratio (BASO%)), erythrocyte count (RBC), hemoglobin concentration (Hgb), hematocrit (Hct), MCV, MCH, MCHC and platelet count (PLT))(used counter: SE-9000™ produced by Sysmex Corporation, Japan) and coagulation tests (prothrombin time (PT), activated partial thromboplastin time (APTT), fibrinogen determination (Fbg))(used tester:CA-1000 produced by Sysmex Corporation, Japan).
EDTA-2K (Venoject II™ or 5 ml produced by Terumo), 5 mg, was used as a control for the blood cell count tests and a 3.8% solution of sodium citrate (3.8% solution of sodium citrate for 5 ml produced by Terumo, Japan), 0.5 ml, was used as a control for the blood coagulation tests, respectively, in place of the above anticoagulant.
The tests were conducted with four normal samples, and mean values are calculated.

Compound: O=C([O-])CN(CCN(CC(=O)O)CC(=O)O)CC(=O)[O-].[K+].[K+] [EDTA-2K]
- change with time in the number of platelets [1]: decreased with time
- decrease of platelets in cold storage ([2]; 4° C., eight hours after collected): Platelets decreased
- PLT (platelet count) ([2]; 37° C. (control)): 17.6 ×10^4
- PLT (platelet count) ([2]; preserved at 4° C., examined eight hours after collected): 9.0 ×10^4
- change with time in the size of platelets (mean platelet volume) [3]: grew in size with time

Compound: O=C([O-])CC(O)(CC(=O)[O-])C(=O)[O-].[Na+].[Na+].[Na+] [sodium citrate]
- APTT (activated partial thromboplastin time) [4]: 28.6 s
- Fbg (fibrinogen determination) [4]: 9.8 s
- PT (prothrombin time) [4]: 9.5 s
